According to US5597922A, “Glycine receptor antagonist pharmacophore” (priority 1994, dated 1997):
pIC50, pKd, pKi: −log10 of the molar value. Read-outs that look alike come from different tables or passages of the source.

Experiments:
glycine/NMDA receptor = target: T1, glycine/NMDA receptor (Rattus norvegicus, UniProt P35439); test: inhibition of 1 μM glycine-stimulated [3H]-MK801 binding in rat brain membrane homogenates (glycine/NMDA receptor antagonist activity); settings: for activity as antagonist for the glycine/NMDA receptor (in words): in vitro binding assay; for potency relative to DCK (% of DCK): relative to 5,7-dichlorokynurenic acid (DCK); for pKi: calculated from IC50 by Cheng and Prusoff equation
T1 construct: rat brain membrane homogenates which are enriched in NMDA receptors; tissue Pel-Freez, Rogers, Ark; (frozen rat brains); host or cells: rat brain membrane homogenates
Protocol: This assay takes advantage of the fact that the binding of [^3 H]-MK801 to the PCP receptor inside the pore of the NMDA channel is dependent on the presence of both glutamate and glycine. In the absence of glycine but in the presence of glutamate, [^3 H]-MK801 cannot bind effectively to the PCP receptor, because the NMDA channel remains closed and access of [^3 H]-MK801 to the PCP receptor inside the closed channel pore is severely restricted.
The assay is conducted using rat brain membrane homogenates which are enriched in NMDA receptors. The membranes are prepared as follows. Frozen rat brains (obtained from Pel-Freez, Rogers, Ark.) are homogenized in 15 volumes (w/v) of ice cold 0.32M sucrose. The homogenate is spun at 1,000×g for ten minutes. The supernatant is collected and spun for 20 minutes at 44,000×g. The pellet is suspended in 15 volumes of water (relative to original brain weight). The homogenate is again spun at 44,000×g for twenty minutes. The pellet is resuspended in 5 volumes of water and the suspension is freeze-thawed 2 times. After the final thaw cycle, the suspension is brought to 15 volumes with water and spun at 44,000×g for twenty minutes. The pellet is resuspended in 5 volumes of ice-cold […] HEPES, and is titrated to pH 7.4 with KOH containing 0.04% Triton X-100. Membranes are incubated with the Triton/HEPES buffer at 37° C. for 15 minutes. The volume is then brought to 15 with ice-cold 10 mM HEPES, pH 7.4, and spun/washed three times with spins of 44,000×g between washes. The final pellet is suspended in three volumes of 50 mM HEPES, pH 7.4 and the protein concentration is determined with a standard dye-binding protein assay (Bio-Rad, Richmond, Calif.). The suspension is stored at -80° C. until used. Only HPLC grade water is used for all buffers and suspensions/washings. The extensive washings are necessary to remove as much endogenous glycine from the membrane preparation as possible.
Nonspecific binding is defined as the […] presence of PCP (final concentration: 100 μM). To determine the effect of 1 μM glycine on the binding of [^3 H]-MK801, bound radioactivity in the presence of 10 μM glutamate alone (final concentration) is subtracted from the bound radioactivity in the presence of both 10 μM glutamate and 1 μM glycine (final concentration). A 500 nM concentration (final) of 5,7-dichlorokynurenic (DCK) acid is added to all assay tubes. This concentration of the glycine antagonist DCK "buffers" most of the residual endogenous glycine that is not removed by the extensive washing steps that are carried out during the membrane preparation procedure.
The assays are incubated for 120 minutes at room temperature after which time the membrane-bound radioactivity is isolated from the free radioactivity by vacuum filtration through Whatman glass fiber filters that had been pretreated with 0.3% polyethyleneimine. Filtration is accomplished using a Brandel 48 well cell harvester. Filtered membranes are washed three times with 3 mL each of ice cold buffer. Filters are transferred to scintillation vials and 5 mL of scintillation cocktail is added. The vials are shaken overnight and the radioactivity is counted by liquid scintillation spectroscopy. The assays are done in triplicate and all experiments are conducted at least three times.

[1] = in words; cited from earlier work
[2] = tested on: glycine binding site of the NMDA receptor; settings: Fletcher and Lodge (1988); cited from earlier work
PCP receptor = settings: Wong, E. H. F., et al. (1986); cited from earlier work
[3] = 1 μM glycine-stimulated [3H]-MK801 binding, rat brain membranes, read-out: IC50
[4] = 1 μM glycine-stimulated [3H]-MK801 binding, rat brain membranes, unit μm [sic], read-out: IC50

Structure (SMILES): O=C1Nc2ccccc2C1=O [Compound 13, Isatin]
- activity as antagonist for the glycine/NMDA receptor (in words) (glycine/NMDA receptor): not to be active

Structure (SMILES): O=C(O)c1cc2ccccc2[nH]1 [indole-2-carboxylic acid]
- blood/brain barrier penetration [1]: cannot penetrate the blood/brain barrier

Structure (SMILES): Oc1nc2ccccc2c(O)c1O [Compound 11, 2,3,4-Trihydroxyquinoline]
- pIC50 (glycine/NMDA receptor; [3]): 4.22
- potency relative to DCK (% of DCK) (glycine/NMDA receptor): 4%

Structure (SMILES): O=C1Nc2cc(Cl)c(Cl)cc2NC1[N+](=O)[O-] (stereo not shown) [Compound 33]
- pKi (glycine/NMDA receptor; unit μm [sic]): 6.66

Structure (SMILES): O=c1[nH]c2cc(Cl)c(Cl)cc2[nH]c1=NO [Compound 37, 6,7-Dichloro-3-(hydroxyimino)-1,4-dihydroquinoxalin-2-one]
- pKi (glycine/NMDA receptor): 6.52

Structure (SMILES): O=c1[nH]c2ccccc2c(=O)o1 [Compound 14a, Isatoic anhydride]
- pIC50 (glycine/NMDA receptor): 3.64
- potency relative to DCK (% of DCK) (glycine/NMDA receptor): 1.1%

Structure (SMILES): O=C1C=CC(=O)Nc2ccccc2N1 [Compound 43, 1H-6H-1,6-Benzodiazocine-2,5-dione]
- activity as antagonist for the glycine/NMDA receptor (in words) (glycine/NMDA receptor): inactive

Structure (SMILES): O=c1[nH]c2ccccc2[nH]c1=O [QX, 1,4-dihydroquinoxaline-2,3-dione, reference compound]
- potency relative to DCK (% of DCK) (glycine/NMDA receptor): 2%

Structure (SMILES): O=c1[nH]c2ccccc2oc1=O [Compound 2, 4,1-Benzoxazine;2,3-dione]
- pIC50 (glycine/NMDA receptor; [4]): 3.78
- potency relative to DCK (% of DCK) (glycine/NMDA receptor): 1.5%

Structure (SMILES): O=c1[nH]c2cc(Cl)c([N+](=O)[O-])c(Cl)c2c(=O)o1 [Compound 14d, 5,7-Dichloro-6(8)-nitroisatoic anhydride]
- potency relative to DCK (% of DCK) (glycine/NMDA receptor): 2.7%

Structure (SMILES): O=C1Nc2cc(Cl)c([N+](=O)[O-])c(Cl)c2C1=O [Compound 13e, 4,6-Dichloro-5(7)-nitroisatin]
- pIC50 (glycine/NMDA receptor; [4]): 4.02
- potency relative to DCK (% of DCK) (glycine/NMDA receptor): 3%

Structure (SMILES): O=C(O)c1cc(=O)c2ccccc2o1 [Compound 19]
- activity as antagonist for the glycine/NMDA receptor (in words) (glycine/NMDA receptor): only partially active

Structure (SMILES): NC1CCN(O)C1=O (stereo not shown) [HA-966]
- blood/brain barrier penetration [1]: sufficiently penetrates the blood/brain barrier
- affinity for the glycine binding site (in words) [2]: micromolar affinity
- type of activity at the glycine binding site (in words) [2]: partial agonist

Structure (SMILES): O=C1Nc2cc(Cl)cc(Cl)c2C1=O [Compound 13d, 4,6-Dichloroisatin]
- activity as antagonist for the glycine/NMDA receptor (in words) (glycine/NMDA receptor): not to be active

Structure (SMILES): O=[N+]([O-])c1c(Br)c(Br)cc2nc(O)[nH]c12 [Example 50, 4-Nitro-5,6-dibromo-2-hydroxybenzimidazole]
- Potency relative to DCK (in words) (glycine/NMDA receptor; relative to DCK): inactive

Structure (SMILES): O=C(O)c1cc(O)c2ccc(Cl)cc2n1 [7-Cl-kynurenic acid]
- blood/brain barrier penetration [1]: cannot penetrate the blood/brain barrier

Structure (SMILES): C[C@]12N[C@H](Cc3ccccc31)c1ccccc12 [MK-801]
- pKd (PCP receptor): ~8.52

Structure (SMILES): O=C1CNC(=O)c2ccccc2N1 [Compound 73a, 2,3,5-trihydro-1H,4H-1,4-Benzodiazepine-2,5-dione]
- pIC50 (glycine/NMDA receptor; [4]): 3.52
- potency relative to DCK (% of DCK) (glycine/NMDA receptor): 1.0%

Structure (SMILES): COc1cc2ccccc2[nH]c1=O [Compound 5, 3-Methoxy-2-quinolone]
- activity as antagonist for the glycine/NMDA receptor (in words) (glycine/NMDA receptor): inactive

Structure (SMILES): O=C1Nc2ccccc2C(=O)C1=O [Compound 12, Quinoline-2,3,4-trione]
- pIC50 (glycine/NMDA receptor; [3]): 4.30
- potency relative to DCK (% of DCK) (glycine/NMDA receptor): 5%
